Key:
Histamine H1 receptor = Histamine H1 receptor (Homo sapiens, UniProt P35367)
Estrogen receptor = molecular target: T1, Estrogen receptor (Homo sapiens, UniProt P03372)
T1 sequence (P03372 whole entry): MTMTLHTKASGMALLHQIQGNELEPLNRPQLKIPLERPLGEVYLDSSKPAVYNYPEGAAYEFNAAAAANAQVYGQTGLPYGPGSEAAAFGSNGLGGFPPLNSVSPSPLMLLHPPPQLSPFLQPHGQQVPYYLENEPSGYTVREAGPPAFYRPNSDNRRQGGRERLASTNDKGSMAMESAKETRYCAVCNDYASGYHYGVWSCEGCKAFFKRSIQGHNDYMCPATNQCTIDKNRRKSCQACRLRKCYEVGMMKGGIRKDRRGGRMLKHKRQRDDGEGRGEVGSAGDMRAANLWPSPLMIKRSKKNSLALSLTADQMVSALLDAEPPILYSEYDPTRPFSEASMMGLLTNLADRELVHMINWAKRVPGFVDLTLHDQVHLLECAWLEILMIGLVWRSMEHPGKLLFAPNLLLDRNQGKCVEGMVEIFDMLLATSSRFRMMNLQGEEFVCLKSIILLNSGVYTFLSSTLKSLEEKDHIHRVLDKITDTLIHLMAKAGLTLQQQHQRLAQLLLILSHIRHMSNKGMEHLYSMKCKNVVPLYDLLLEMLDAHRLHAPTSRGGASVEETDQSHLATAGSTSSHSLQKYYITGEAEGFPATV

B1 bradykinin receptor = molecular target: T2, B1 bradykinin receptor (Homo sapiens, UniProt P46663)
T2 sequence (P46663 whole entry): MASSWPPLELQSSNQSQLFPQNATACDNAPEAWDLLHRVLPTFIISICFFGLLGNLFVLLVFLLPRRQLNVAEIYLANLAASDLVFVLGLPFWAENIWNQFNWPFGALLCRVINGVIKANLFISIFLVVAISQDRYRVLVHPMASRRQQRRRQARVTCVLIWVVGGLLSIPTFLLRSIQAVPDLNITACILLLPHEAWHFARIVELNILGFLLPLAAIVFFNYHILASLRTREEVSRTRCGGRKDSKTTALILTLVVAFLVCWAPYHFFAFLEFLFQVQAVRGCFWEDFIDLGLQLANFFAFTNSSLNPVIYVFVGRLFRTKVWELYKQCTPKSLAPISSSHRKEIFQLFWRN

Glucagon receptor = Glucagon receptor (Homo sapiens, UniProt P47871)
Glucagon receptor, sequence (P47871 whole entry): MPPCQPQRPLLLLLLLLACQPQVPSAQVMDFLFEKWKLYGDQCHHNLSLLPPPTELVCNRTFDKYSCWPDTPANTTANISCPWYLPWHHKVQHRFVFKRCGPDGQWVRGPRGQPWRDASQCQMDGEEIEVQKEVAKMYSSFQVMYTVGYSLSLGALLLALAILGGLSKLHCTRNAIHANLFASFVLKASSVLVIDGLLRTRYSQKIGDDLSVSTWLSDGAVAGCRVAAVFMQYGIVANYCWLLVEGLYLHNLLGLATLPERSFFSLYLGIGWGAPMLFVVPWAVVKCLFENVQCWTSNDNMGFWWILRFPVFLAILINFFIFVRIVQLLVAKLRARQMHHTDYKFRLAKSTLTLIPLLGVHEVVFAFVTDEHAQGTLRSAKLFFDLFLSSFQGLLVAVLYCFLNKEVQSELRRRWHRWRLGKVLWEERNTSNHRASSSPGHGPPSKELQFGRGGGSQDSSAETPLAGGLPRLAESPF

[1] = molecular target: T3, Muscarinic acetylcholine receptor M2 (Homo sapiens, UniProt P08172)
T3 sequence (P08172 whole entry): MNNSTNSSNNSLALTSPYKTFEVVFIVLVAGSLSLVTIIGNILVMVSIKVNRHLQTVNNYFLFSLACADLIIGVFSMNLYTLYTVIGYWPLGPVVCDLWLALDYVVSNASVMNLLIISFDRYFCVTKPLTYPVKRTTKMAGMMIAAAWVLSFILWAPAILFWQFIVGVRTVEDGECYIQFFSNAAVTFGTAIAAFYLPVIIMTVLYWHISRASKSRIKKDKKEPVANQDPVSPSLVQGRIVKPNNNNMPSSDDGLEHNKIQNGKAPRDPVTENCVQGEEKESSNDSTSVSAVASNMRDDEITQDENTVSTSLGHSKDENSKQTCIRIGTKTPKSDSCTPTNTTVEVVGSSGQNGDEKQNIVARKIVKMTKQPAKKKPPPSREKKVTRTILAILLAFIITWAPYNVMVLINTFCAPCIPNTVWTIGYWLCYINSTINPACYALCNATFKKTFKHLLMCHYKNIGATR

[2] = molecular target: T4, 5-hydroxytryptamine receptor 1A (Homo sapiens, UniProt P08908)
T4 sequence (P08908 whole entry): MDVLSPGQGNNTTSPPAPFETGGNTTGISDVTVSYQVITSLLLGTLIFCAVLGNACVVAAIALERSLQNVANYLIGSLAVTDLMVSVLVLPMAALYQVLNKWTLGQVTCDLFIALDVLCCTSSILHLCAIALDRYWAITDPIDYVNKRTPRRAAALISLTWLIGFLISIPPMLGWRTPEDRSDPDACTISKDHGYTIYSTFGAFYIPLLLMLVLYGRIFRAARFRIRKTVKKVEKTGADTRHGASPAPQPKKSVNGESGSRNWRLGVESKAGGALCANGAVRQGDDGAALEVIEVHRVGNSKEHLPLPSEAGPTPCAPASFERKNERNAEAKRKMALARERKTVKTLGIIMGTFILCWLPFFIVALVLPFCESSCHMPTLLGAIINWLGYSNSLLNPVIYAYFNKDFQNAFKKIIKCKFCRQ

[3] = molecular target: T5, Endothelin receptor type B (Homo sapiens, UniProt P24530)
T5 sequence (P24530 whole entry): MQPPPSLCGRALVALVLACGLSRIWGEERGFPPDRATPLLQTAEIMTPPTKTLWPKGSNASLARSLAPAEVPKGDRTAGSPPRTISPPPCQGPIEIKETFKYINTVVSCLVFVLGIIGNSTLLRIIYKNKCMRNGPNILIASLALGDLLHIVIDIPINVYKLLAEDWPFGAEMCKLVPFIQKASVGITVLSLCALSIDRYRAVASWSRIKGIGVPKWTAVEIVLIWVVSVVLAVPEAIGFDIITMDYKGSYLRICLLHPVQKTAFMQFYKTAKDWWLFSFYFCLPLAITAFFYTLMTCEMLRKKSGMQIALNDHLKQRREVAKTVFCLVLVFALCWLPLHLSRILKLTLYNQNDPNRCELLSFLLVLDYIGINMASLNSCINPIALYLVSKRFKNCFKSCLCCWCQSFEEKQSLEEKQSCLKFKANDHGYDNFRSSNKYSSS

Adenosine receptor A1 = molecular target: T6, Adenosine receptor A1 (Homo sapiens, UniProt P30542)
T6 sequence (P30542 whole entry): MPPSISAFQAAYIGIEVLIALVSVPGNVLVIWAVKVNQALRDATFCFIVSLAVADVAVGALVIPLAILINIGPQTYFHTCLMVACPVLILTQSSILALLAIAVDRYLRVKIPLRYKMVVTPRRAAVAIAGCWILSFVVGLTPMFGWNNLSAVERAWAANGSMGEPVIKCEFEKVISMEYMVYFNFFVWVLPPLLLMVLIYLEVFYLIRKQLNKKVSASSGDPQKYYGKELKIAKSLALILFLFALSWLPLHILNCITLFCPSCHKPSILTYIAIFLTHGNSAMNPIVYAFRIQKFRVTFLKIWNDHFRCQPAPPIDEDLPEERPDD
Also: assay procedure not described here.

Histamine H1 receptor, sequence (P35367 whole entry): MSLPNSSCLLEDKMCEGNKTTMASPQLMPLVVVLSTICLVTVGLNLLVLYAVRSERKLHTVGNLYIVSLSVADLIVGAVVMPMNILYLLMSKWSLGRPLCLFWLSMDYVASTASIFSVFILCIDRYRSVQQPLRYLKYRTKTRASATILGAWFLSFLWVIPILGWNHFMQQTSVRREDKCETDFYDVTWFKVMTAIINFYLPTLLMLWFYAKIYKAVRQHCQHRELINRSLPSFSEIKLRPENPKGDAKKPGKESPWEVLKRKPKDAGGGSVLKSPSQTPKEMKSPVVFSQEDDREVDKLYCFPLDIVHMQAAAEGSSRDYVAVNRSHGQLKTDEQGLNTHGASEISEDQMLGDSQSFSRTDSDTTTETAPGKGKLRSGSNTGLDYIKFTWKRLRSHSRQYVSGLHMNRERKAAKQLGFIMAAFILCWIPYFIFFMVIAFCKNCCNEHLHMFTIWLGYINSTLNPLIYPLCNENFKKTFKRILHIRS

Compound	AC50 (Histamine H1 receptor)	AC50 (Estrogen receptor)	AC50 (B1 bradykinin receptor)	AC50 (Glucagon receptor)	AC50 [1]	AC50 [2]	AC50 [3]	also measured
C[C@@H](NCCCc1cccc(C(F)(F)F)c1)c1cccc2ccccc12	16 µM							
COc1ccc(CC2c3cc(OC)c(OC)cc3CC[N+]2(C)CCC(=O)OCCCCCOC(=O)CC[N+]2(C)CCc3cc(OC)c(OC)cc3C2Cc2ccc(OC)c(OC)c2)cc1OC (configuration not stated)	> 30 µM	> 30 µM						
CCN1CCN(Cc2ccc(Nc3ncc(F)c(-c4cc(F)c5nc(C)n(C(C)C)c5c4)n3)nc2)CC1 [ABEMACICLIB]	23 µM							
COc1ccccc1Oc1c(NS(=O)(=O)c2ccc(C(C)(C)C)cc2)nc(-c2ncccn2)nc1OCCO [BOSENTAN]	> 10 µM	> 30 µM	> 30 µM	> 30 µM	> 10 µM	> 10 µM		
COc1cc2nccc(Oc3ccc(NC(=O)C4(C(=O)Nc5ccc(F)cc5)CC4)cc3)c2cc1OC [CABOZANTINIB]	> 30 µM							
CC(C(=O)O)c1ccc2c(c1)[nH]c1ccc(Cl)cc12 (configuration not stated) [CARPROFEN]	> 10 µM	> 30 µM						
COc1ccccc1OCCNCC(O)COc1cccc2[nH]c3ccccc3c12 (configuration not stated) [CARVEDILOL]		> 30 µM	> 30 µM	> 30 µM	> 10 µM	0.02 µM	> 30 µM	
C/C=C/C/C=C/CCC(=O)[C@H]1O[C@H]1C(N)=O [CERULENIN]								AC50 (Adenosine receptor A1): > 30 µM
O=C1CCc2cc(OCCCCc3nnnn3C3CCCCC3)ccc2N1 [CILOSTAZOL]		> 30 µM				> 10 µM		
C[C@@H](Oc1cc(-c2cnn(C3CCNCC3)c2)cnc1N)c1c(Cl)ccc(F)c1Cl [CRIZOTINIB]	> 30 µM			> 30 µM	> 10 µM	> 10 µM		
O=C1CN(/N=C/c2ccc(-c3ccc([N+](=O)[O-])cc3)o2)C(O)=N1 [DANTROLENE]	> 10 µM							
CC(C)N(CCC(C(N)=O)(c1ccccc1)c1ccccn1)C(C)C (configuration not stated) [DISOPYRAMIDE]	> 10 µM		> 30 µM	> 30 µM		> 10 µM	> 30 µM	
C[C@H]1c2cccc(O)c2C(=O)C2=C(O)[C@]3(O)C(=O)C(C(N)=O)=C(O)[C@@H](N(C)C)[C@@H]3[C@@H](O)[C@@H]21 [DOXYCYCLINE]			> 30 µM	> 30 µM	> 10 µM	> 10 µM	> 30 µM	
C[C@]12C=CC(=O)N[C@@H]1CC[C@@H]1[C@@H]2CC[C@]2(C)[C@@H](C(=O)Nc3cc(C(F)(F)F)ccc3C(F)(F)F)CC[C@@H]12 [DUTASTERIDE]	> 10 µM	> 10 µM						
CC(C)(O)CNc1nc(Nc2ccnc(C(F)(F)F)c2)nc(-c2cccc(C(F)(F)F)n2)n1 [ENASIDENIB]								AC50 (Adenosine receptor A1): 1.29 µM
CCc1nc(C(N)=O)c(Nc2ccc(N3CCC(N4CCN(C)CC4)CC3)c(OC)c2)nc1NC1CCOCC1 [GILTERITINIB]								AC50 (Adenosine receptor A1): > 30 µM
O=C(O)CO [GLYCOLIC ACID]								AC50 (Adenosine receptor A1): > 30 µM

Compound	AC50 (Histamine H1 receptor)	AC50 (Estrogen receptor)	AC50 (B1 bradykinin receptor)	AC50 (Glucagon receptor)	AC50 [1]	AC50 [2]	AC50 [3]	also measured
CC(C)Cc1ccc(C(C)C(=O)O)cc1 (configuration not stated) [IBUPROFEN]		21.3 µM	> 30 µM	> 30 µM	> 10 µM	> 10 µM	> 30 µM	
CCOC(=O)c1c(C)cc2c(CO)n[nH]c(=O)c2c1C [OXAGRELATE]								AC50 (Adenosine receptor A1): 25.9 µM
N#Cc1ccc2c(c1)N(CCCN1CCC(O)CC1)c1ccccc1S2 [PERICIAZINE]								AC50 (Adenosine receptor A1): > 30 µM
C=C[C@H]1C[N@@]2CC[C@H]1C[C@@H]2[C@@H](O)c1ccnc2ccc(OC)cc12 [QUINIDINE]	> 10 µM	> 30 µM				> 10 µM		
CO[C@H]1/C=C/O[C@@]2(C)Oc3c(C)c(O)c4c(O)c(c(/C=N/N5CCN(C)CC5)c(O)c4c3C2=O)NC(=O)/C(C)=C\C=C\[C@H](C)[C@H](O)[C@@H](C)[C@@H](O)[C@@H](C)[C@H](OC(C)=O)[C@@H]1C [RIFAMPIN]			14.2 µM	> 30 µM		> 10 µM	> 30 µM	
CC(N)C12CC3CC(CC(C3)C1)C2 (configuration not stated) [RIMANTADINE]		> 10 µM						
CN(C)CCc1c[nH]c2ccc(Cn3cncn3)cc12 [RIZATRIPTAN]	5.79 µM		> 30 µM	> 30 µM	> 10 µM		> 30 µM	
CC(C)c1nc(N(C)S(C)(=O)=O)nc(-c2ccc(F)cc2)c1/C=C/[C@@H](O)C[C@@H](O)CC(=O)O [ROSUVASTATIN]	> 30 µM	> 30 µM						
N[C@@H](CC(=O)N1CCn2c(nnc2C(F)(F)F)C1)Cc1cc(F)c(F)cc1F [SITAGLIPTIN]	> 30 µM		> 10 µM		> 10 µM	> 10 µM	> 10 µM	
Nc1ccc(S(=O)(=O)Nc2nccs2)cc1 [SULFATHIAZOLE]		> 30 µM	> 30 µM	> 30 µM	> 10 µM	> 10 µM	> 30 µM	
O=C1C(CC[S+]([O-])c2ccccc2)C(=O)N(c2ccccc2)N1c1ccccc1 (configuration not stated) [SULFINPYRAZONE]		> 10 µM						
CCN(CC)CCNC(=O)c1c(C)[nH]c(/C=C2\C(=O)Nc3ccc(F)cc32)c1C [SUNITINIB]					7.19 µM	7.13 µM		
C=CC[C@@H]1/C=C(\C)C[C@H](C)C[C@H](OC)[C@H]2O[C@@](O)(C(=O)C(=O)N3CCCC[C@H]3C(=O)O[C@H](/C(C)=C/[C@@H]3CC[C@@H](O)[C@H](OC)C3)[C@H](C)[C@@H](O)CC1=O)[C@H](C)C[C@@H]2OC [TACROLIMUS ANHYDROUS]		> 30 µM	> 30 µM	> 30 µM	> 10 µM	> 10 µM	> 30 µM	
CC(S)C(=O)NCC(=O)O (configuration not stated) [TIOPRONIN]	> 30 µM							
C[C@H](CCC(=O)O)[C@H]1CC[C@H]2[C@@H]3[C@@H](O)C[C@@H]4C[C@H](O)CC[C@]4(C)[C@H]3CC[C@]12C [URSODIOL]	> 30 µM							
Cc1onc(-c2ccccc2)c1-c1ccc(S(N)(=O)=O)cc1 [VALDECOXIB]			> 30 µM	> 30 µM	> 10 µM	> 10 µM	> 30 µM	
